From US5986131A, “RXR selective ligands” (Hoffmann-La Roche Inc., priority 1997, dated 1999)
Entries after “also recorded” stand apart in the source; their conditions may differ. Read-outs that look alike come from different tables or passages of the source.

Columns and labels:
[1] = system: Rhino mouse utricles; experiment: Rhino mouse utricle reduction activity; assay type: in vivo, Rhino mice; conditions: topical; for Utricle Size: 3 weeks; for Utricle size % Change from Control: ns = not statistically significant, others p<0.05
Method: Compounds were dissolved in 100% acetone and stored at 4° C. for the duration of the experiment under nitrogen. […] One day after the last dose, the mice were sacrificed by CO2 inhalation. […] The epidermis was then separated from the dermis.
The samples were kept in each of the above solutions for 2 hours. The skin samples were removed from the xylene and mounted on glass microscope slides. Image analysis, using the Ultimage image analysis software, was used to determine the mean diameter and area of utricles. Approximately 5 fields per sample were examined, for an average of 150 utricles per mouse measured.

[2] = biological target: T1, RARα (Homo sapiens, UniProt P10276); experiment: RARα activation (transactivation); assay type: cell-based
T1 sequence (P10276 1-462): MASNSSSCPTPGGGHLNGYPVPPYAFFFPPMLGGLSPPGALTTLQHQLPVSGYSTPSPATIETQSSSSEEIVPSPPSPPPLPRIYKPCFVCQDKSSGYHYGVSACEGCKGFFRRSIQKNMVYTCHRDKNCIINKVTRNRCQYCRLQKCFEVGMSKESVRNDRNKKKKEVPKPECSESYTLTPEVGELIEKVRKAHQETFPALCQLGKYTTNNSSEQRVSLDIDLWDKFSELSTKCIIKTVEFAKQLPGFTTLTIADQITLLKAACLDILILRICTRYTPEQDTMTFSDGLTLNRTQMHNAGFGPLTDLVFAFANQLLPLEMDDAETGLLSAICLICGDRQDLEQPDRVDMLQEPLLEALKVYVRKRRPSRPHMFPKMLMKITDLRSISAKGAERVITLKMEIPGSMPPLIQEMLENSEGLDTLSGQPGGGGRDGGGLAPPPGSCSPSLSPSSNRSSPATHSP
From the text: (§1) Methods essentially as described in those publications were used to determine the binding and transactivation properties of retinoids reported in the Examples herein.

[3] = biological target: T2, RXRα (Homo sapiens, UniProt P19793); experiment: RXRα binding; conditions: Table 2
T2 sequence (P19793 1-462): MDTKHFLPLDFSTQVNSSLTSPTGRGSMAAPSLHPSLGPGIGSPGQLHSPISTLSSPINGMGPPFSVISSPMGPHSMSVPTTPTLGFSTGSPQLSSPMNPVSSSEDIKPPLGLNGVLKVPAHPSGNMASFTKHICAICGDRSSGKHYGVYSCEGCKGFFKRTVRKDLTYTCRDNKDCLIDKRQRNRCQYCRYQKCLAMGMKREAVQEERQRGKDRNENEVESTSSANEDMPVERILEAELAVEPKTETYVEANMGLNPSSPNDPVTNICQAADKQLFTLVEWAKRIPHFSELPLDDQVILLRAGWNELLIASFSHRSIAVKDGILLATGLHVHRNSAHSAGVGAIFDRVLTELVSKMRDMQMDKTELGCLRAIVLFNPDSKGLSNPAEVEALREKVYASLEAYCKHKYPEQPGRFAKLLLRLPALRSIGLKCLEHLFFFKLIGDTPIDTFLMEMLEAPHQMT
From the text: as §1

[4] = biological target: T2, RXRα; experiment: RXRα activation (transactivation); assay type: cell-based; conditions: Table 1; read-out: Activation ED50, RXRα
From the text: as §1

[5] = system: HL-60 cells; experiment: HL-60 differentiation (NBT reduction); assay type: cell-based, human
Method: Under the influence of retinoids, HL-60 cells (a human myeloid leukemia cell line) differentiate into granulocytes. This differentiation of HL-60 cells into granulocytes is mediated by RARα, and so provides the basis for the use of retinoids to treat leukemia.
Retinoid-induced differentiation of HL-60 cells was assayed by measuring their oxidative burst potential via the reduction of NBT (Nitroblueterstazolium) [Pick et al., J. Reticuloendothelial Soc., 30:581-593 (1981)].
HL-60 cells were maintained in RPMI 1640 medium supplemented with 10% FCS, 2mM L-glutamine, ImM sodium pyruvate, 1% non-essential amino acids, 50 U/ml penicillin and 50 μg/ml streptomycin (=RPMI/FCS).
30,000 cells/[…] of RPMI/FCS were seeded into flat-bottomed microtiter wells. 10 μl of retinoids diluted in complete medium were added at the same time to yield final concentrations betweeen 10^-11 and 10^-6 M (stock solutions of 10^-2 M in ethanol were kep at -20° C. and protected from light). After 3 days, the medium was removed with a multichannel pipette and replaced with 100 μl of NBT solution (1 mg/ml in PBS with 200 nM phorbol myristate acetate (PMA). Following an additional hour incubation at 37° C. the NBT solution was removed and 100 μl of 10% SDS in 0.01 N HCl was added. The amount of the reduced NBT was quantified photometrically at 540 nm using an automated plate reader. The mean of 3 wells was calculated. S.E.M. were between 5 and 10%.

[6] = system: mouse B cell; experiment: Inhibition of LPS-induced mouse B cell proliferation (3H-thymidine incorporation); assay type: cell-based
Method: Single cell suspensions of mouse spleen were set up in culture in flatbottomed 96 well Microtiter trays, 0.2 ml/well of a 2×10^5 /ml cell suspension in IMDM supplemented with 10% foetal calf serum, HEPES, antibiotics and 50 μM 2-mercaptoethanol. The specific B cell mitogen E. coli lipopolysaccharide (DIFCO) (LPS) was added at 50μg/ml. Cultures were incubated at 37° C. in a humidified atmosphere and 5% CO2.
The retinoids to be tested were first titrated in triplicate from 10 nM to 10 μM and left throughout the whole culture period. […] Cyclosporin A (Sandoz AG) was used as a reference compound (from 1 nM to 1 μM).
The cultures were then harvested on glass fiber filters and the radioactivity imcorporated into DNA measured in a β-liquid scintillation counter (Betaplate, Wallac Oy, Turku, Finland).
The results are expressed as % of the response of untreated cultures. […] Retinoids were added to the cultures at the beginning of the culture period.

## CC1=C(/C=C/C2=C(/C=C/C(C)=C/C(=O)O)CCCC2)C(C)(C)CCC1 [Example 4, (2E,4E)-3-Methyl-5-(2-((E)-2(2,6,6-trimethyl-1-cyclohexen-1-yl)ethenyl)-1-cyclohexen-1-yl)-2,4-pentadienoic acid]
[1]; 0.1 μg/day
  Utricle Size: 9843 ± 565 μm^2 / utricle
  Utricle size % Change from Control: +1%
[1]; 1 μg/day
  Utricle Size: 9491 ± 507 μm^2 / utricle
  Utricle size % Change from Control: -3%
[1]; 10 μg/day
  Utricle Size: 8951 ± 964 μm^2 / utricle
  Utricle size % Change from Control: -8%
[1]; 100 μg/day
  Utricle Size: 5916 ± 992 μm^2 / utricle
  Utricle size % Change from Control: -39%
[2]; Table 1, read-out: Activation ED50, RARα
  EC50: > 10000 nM
[2]; Table 2, read-out: RARα activation ED50
  EC50: > 10000 nM
[3]
  IC50: 92 nM
[4]
  EC50: 1.7 nM
[5]; FIG. 1
  activity as inducer of HL-60 differentiation compared with all-trans retinoic acid: clearly less active
[5]; FIGS. 2 and 3, alone
  HL-60 differentiation activity by itself at potentiating concentrations: not active by itself
[5]; ×10^-6 M, alone
  activity as inducer of HL-60 differentiation: virtually inactive
[6]; LPS induced mouse B cell proliferation
  potency relative to all-trans RA: 1/100
[6]; Mus musculus, B-cell, 72 h, alone, FIG. 4, day 3
  IC50: 100 nM
[6]; day 4, low doses (=IC50 at day 3)
  effect on B cell response at low doses: slightly enhancing the response
[6]; in combination with all-trans RA
  potentiation of inhibitory activity of all-trans RA on mouse B cell proliferation: potentiated the inhibitory activity of all-trans RA; also recorded: potentiates the effect of all-trans RA
[6]; with 1 nM RA, day 4, FIG. 6
  inhibition by combination with 1 nM RA: inhibition on the order of that induced by 10 nM RA
[6]; with 1 nM all-trans RA, day 3, FIG. 5
  potentiation of effect of 1 nM all-trans RA: potentiation of the effect of 1 nM RA to the level observed with 10 nM RA
[6]; with all-trans RA
  excess RXR ligand over all-trans RA for potentiation: 10 to 30 fold
  magnitude of the potentiation: roughly tenfold
